Experimental data published in patent publication US8628753B2, “Reduced dye probes for the detection of radical oxygen species” (Emory University, priority 2008, dated 2014).

What was measured:
[1] = Fluorescence of hydrocyanines before and after reaction with superoxide (KO2); format: physicochemical; details: for λem: emission wavelength of the corresponding oxidized product; for λex: excitation wavelength of the corresponding oxidized product; for Fold Increase in Intensity: oxidized versus reduced dye, 7.5 μM in 1 mL methanol, oxidized with 20 μL DMSO containing 20 mM KO2
Experimental: Superoxide (O2^−) was created by the enzymatic reaction of XA/XO (10 lm/10 mU) at 25° C. for 5 min (XA=[…]). XA/XO (10 lm/10 mU) was added to buffered solutions of Hydro-Cy3 ([…]) maintained in a 37° C. water bath. The fluorescence emission of each reaction mixture was measured at 5-min intervals against a reagent blank using a fluorescence spectrometer. In some cases solid KO2 (1 mg) or KO2 dissolved in DMSO was added to a Hydro-IR-786 solution in methanol or DMSO and the emission spectra was recorded. Alternatively, hydro-IR-786 (2 mg) was dissolved in 1 mL of ethanol and 50 μL of […] KO2 solution (7 mg KO2 was dissolved in 10 mL dimethylsulfoxide) was added and stirred for 15 min before recording the emission spectra.

[2] = Sensitivity of DHE and D-DHE to Fenton's reagent in PBS; details: 50 μM probe in PBS; FIG. 4
Experimental: The sensitivity of deuterohydroethydium (D-DHE or DDE) was evaluated in the same manner. A 50 μM solution of DHE or D-DHE (DDE) in PBS buffer was treated with Fenton's reagent (using 1-60 nM H2O2 with Fe^2+) and the fluorescence of the oxidized product was measured.

[3] = tested on: rat aortic smooth muscle (RASM) cells; assay: Detection of ROS in RASM cells during Ang II mediated cell signaling; format: cell-based; details: for background fluorescence / detection of intracellular ROS after Ang II stimulation: 10 minutes; for detection of intracellular ROS after Ang II stimulation: fluorescent microscopy
Experimental: The ability of hydrocyanines to detect ROS in rat aortic muscle (RASM) cells during angiotensin (Ang) II mediated cell signaling was evaluated using fluorescence spectroscopy. Ang II-mediated ROS production in aortic smooth muscle cells has been implicated in the development of atherosclerosis and hypertension.
[…] […] It is evident from fluorescence measurements that hydro-Cy3 is sensitive enough to detect even the ROS production by normal cells, causing relatively higher background fluorescence. On the other hand, because of the tuned reaction rate, deutero-Cy3 can only detect the overproduction of ROS during Ang-II mediated ROS over-production.
The ability of D-DHE to detect ROS in rat aortic muscle (RASM) cells during angiotensin (Ang) II mediated cell signaling was evaluated using fluorescence spectroscopy. A comparative cell-culture study between DHE and D-DHE was conducted to evaluate the ability of DHE and D-DHE to detect ROS production in rat aortic smooth muscle (RASM) cells, during angiotensin (Ang) II mediated cell signaling.
[…] […] Stimulation of RASMs with Ang II was not detected with DHE due to the high level background fluorescence.

physchem = details: for half-life: buffer, pH 7.4
Experimental: A solution of hydrocyanine in PBS buffer (pH 7.4) was placed in an Eppendorf tube and placed in a 37° C. water bath. Stability was measured by monitoring the formation of the oxidation product using fluorescence spectroscopy over a 24 hour period. The excitation and emission wavelengths for DHE were 515 and 590 nm.
The stability of deuterocyanines was evaluated in the same manner.

[4] = tested on: live, explanted mouse aortas; assay: Detection of ROS in live, explanted mouse aortas after LPS stimulation; design: species or system C57B1/6 mice; details: for detection of ROS in tissue explants (LPS versus PBS): confocal fluorescent imaging
Experimental: The ability of hydrocyanines to detect ROS from live, explanted mouse aortas, after lipopolysaccharide endotoxin (LPS) stimulation to produce ROS, was evaluated. The detection of ROS in live tissue can provide information about ROS production in a physiological environment that closely resembles in vivo conditions. C57B1/6 mice were treated with either 16 mg/kg lipopolysaccharide endotoxin (LPS) or PBS for 16 hours and then euthanized. The aortas of the mice were isolated and incubated with either Hydro-Cy3 or Hydro-Cy3+TEMPOL for 15 minutes. Sections of the aorta were made, fixed with 10% formalin, and mounted en face.
For example, the fluorescence intensity of the LPS-treated slide was 183.2 RFU/S compared to 46.9 RFU/S in the PBS-treated mice. Application of TEMPOL (small molecule cell-permeable superoxide dismutase mimetic1, which attenuates superoxide anion and peroxynitrite-induced inflammation) to mouse aortas, treated with LPS, reduced the fluorescence to control levels.

carotid arteries = assay: DHE staining of carotid artery sections after carotid ligation; design: species or system Mice; details: 10 μmol/L in PBS, 30 minutes at 37° C.; 14 days after ligation
Experimental: Mice were anesthetized with ketamine/xylazine and their left carotid arteries were exposed and tied with a 6-0 silk suture 1 cm below the bifurcation as described in the literature. The control was sham operated mice. The mice were sacrificed 14 days after ligation and their carotid arteries were isolated and frozen, enzymatically-intact, and 30 μm-thick sections of sham operated and injured carotid arteries were made. The frozen sections were incuvated with DHE (10 μmol/L) in PBS for 30 minutes at 37° C. in a humidified chamber protected form light. DHE is oxidized on reaction with superoxide to ethidium bromide, which binds to DNA in the nucleus and fluoresces red. The DHE stained slides were imaged on a confocal microscope. The ethidium bromide fluorescence was detected using a 543 nm He—Ne laser for excitation and a 560 nm long pass filter for emission. The autofluorescence of the elastic laminae was detected using a 488 nm Ar laser for excitation combined with a 500-550 nm band pass filter for emission.

[5] = tested on: ROS production generated by activated macrophages and neutrophils; assay: In vivo imaging of ROS in LPS model of acute inflammation; design: species or system C57B1/6 mice; details: 5 nanomoles i.p., 6 hours after LPS (1 mg i.p.); abdominal area; FIG. 7
Experimental: The ability of hydrocyanines to image ROS production, in vivo, generated by activated macrophages and neutrophils, in an LPS model of acute inflammation was evaluated. Nine C57B1/6 mice were divided into three groups: Group I was given an intraperitoneal (i.p.) injection of LPS (1 mg in 400 μL saline); Group II was given saline (400 μL); and Group III was untreated. After 6 hours, the mice were anaesthetized, their abdominal fur was removed, and the LPS and saline treated mice were injected i.p. with Hydro-Cy7 (5 nanomoles in 50 μL methanol). The mice were images as triplets, one from each group, using a Kodak FX in vivo images with a 700 nm excitation laser and a 790 nm emission filter. […] The mean fluorescent intensity, from the abdominal area, from the three sets of mice was also quantified using Image-Pro software. LPS-treated mice had approximately two-fold higher fluorescence intensity than the saline group.

[6] = Specificity to various reactive oxygen species; details: 50 μM probe in PBS with 1% methanol; equimolar ROS; 5 minutes at 25° C.; FIG. 5
Experimental: A 50 μm Hydro-Cy7 solution was prepared in phosphate buffered saline (PBS) containing 1% methanol. Various reactive oxygen species were added to the 50 μm Hydro-Cy7 solution, at an equimolar ratio to Hydro-Cy7, and the fluorescence intensity was recorded after incubating 5 minutes at 25° C. Superoxide (O2^−) was added as solid KO2. Stock solutions of hydrogen peroxide, t-butyl hydrogen peroxide (TBHP), hypochlorite, 3-morpholinosydnonimine (SIN-1), glutathione (GSH), and 1,4-hydroquinone were prepared and added to the Hydro-Cy7 solution to generate a final concentration of 50 μM. 3-(aminopropyl)-1-hydroxy-3-isopropyl-2-oxo-1-triazene (NOC-5, 1 mM) was prepared as a 10 mM sodium hydroxide solution and added to the Hydro-Cy7 solution to generate a final concentration of 50 μM. The hydroxide and butoxy radicals were generated in situ by reacting hydrogen peroxide and t-butylperoxide with Fe^2+. A 50 μM Hydro-Cy7 solution, in PBS, containing 500 μM Fe^2+ was prepared and either hydrogen peroxide or t-butyl hydrogen peroxide was added to this solution to generate a final concentration of 50 μM.

[7] = Sensitivity to hydroxide radical generated from H2O2 and Fe2+
Experimental: Hydroxide radicals were generated in situ by reacting hydrogen peroxide with Fe^2+. Various quantities of hydrogen peroxide (H2O2) stock solutions were added to a solution of hydrocyanine in methanol to generate hydrogen peroxide concentrations from about 2 to about 30 nM. Aqueous Fe^2+(1 μM) was added to the reduced dye/H2O2 solution to generate a 200 nM concentration. The resulting solution was kept at ambient temperature for 5 minutes and the fluorescence intensity was measured (λex/λem) against a reagent blank (control solution containing only reagent) simultaneously.
This measurement was carried out using 100 μM of Hydro-ICG at 25° C. The hydroxide radical was generated using the procedure described above.

RASM cells = assay: Trypan blue cell viability assay; format: cell-based, rat; details: experimental conditions of RASM assay and higher concentrations (1 mM)

| SMILES | λem [1] | λex [1] | half-life (physchem) | Fold Increase in Intensity [1] | background fluorescence ([3]; probe 10 μM) | detection of intracellular ROS after Ang II stimulation ([3]; probe 10 μM) | detection of ROS (fluorescence) in cells incubated with Ang II ([3]; probe 100 μM) | detection of ROS in tissue explants (LPS versus PBS) [4] | further results |
| --- | --- | --- | --- | --- | --- | --- | --- | --- | --- |
| [2H]C1(c2ccccc2)c2cc(N)ccc2-c2ccc(N)cc2N1CC [D-DHE, deuterohydroethydium] |  |  |  |  | very low levels of background fluorescence | significant increase in fluorescence |  |  | concentration range in which ROS is accurately measured [2]: 5 to 60 nM; change in fluorescence on application of TEMPOL ([3]; cells treated with probe (10 μM) and Ang II): dramatic decrease in fluorescence; detection of intracellular ROS after Ang II stimulation ([3]; probe 10 μM, listed as DDE): significantly better than DHE; increase in stability versus DHE (physchem): 4-6 fold |
| CCN1c2cc(N)ccc2-c2ccc(N)cc2C1c1ccccc1 (centres unmarked) [DHE, dihydroethydium, reference compound] | 590 nm | 515 nm | 0.5 h |  | large amount of background fluorescence | not detected | failed to detect ROS | failed to detect ROS | ROS detection in ligated versus sham carotid artery sections (carotid arteries): increased red fluorescence compared to the sham mice |

More lines, main results first:

| λem [1] | λex [1] | half-life (physchem) | SMILES | Fold Increase in Intensity [1] | background fluorescence ([3]; probe 10 μM) | detection of intracellular ROS after Ang II stimulation ([3]; probe 10 μM) | detection of ROS (fluorescence) in cells incubated with Ang II ([3]; probe 100 μM) | detection of ROS in tissue explants (LPS versus PBS) [4] | further results |
| --- | --- | --- | --- | --- | --- | --- | --- | --- | --- |
| 693 nm | 675 nm |  | CN1/C(=C/C=C/C=C/C2N(C)c3ccc4ccccc4c3C2(C)C)C(C)(C)c2c1ccc1ccccc21 (centres unmarked) [Hydro-IR-676] | 100 fold |  |  |  |  |  |
| 760 nm | 735 nm | ~72 h | CCN1/C(=C/C=C/C=C/C=C/C2N(CC)c3ccccc3C2(C)C)C(C)(C)c2ccccc21 (centres unmarked) [Hydro-Cy7] | 104 fold |  |  |  |  | fluorescence intensity of LPS-treated mice relative to saline group [5]: approximately two-fold; ROS specificity [6]: specificity for superoxide and hydroxyl radical |
| 560 nm | 535 nm | ~72 h | CCN1/C(=C/C=C/C2N(CC)c3ccccc3C2(C)C)C(C)(C)c2ccccc21 (centres unmarked) [Hydro-Cy3] | 118 fold |  |  | intense intracellular fluorescence | significantly higher fluorescence intensity | change in fluorescence on application of TEMPOL ([3]; cells treated with probe (100 μM) and Ang II): dramatic decrease in fluorescence; background fluorescence ([3]; probe 50 μM): relatively higher amounts of background fluorescence; fluorescence of cells incubated with probe alone ([3]; probe 100 μM, no Ang II): significantly less fluorescence; integrated total fluorescence intensity ([4]; aortas of LPS-treated mice (16 mg/kg, 16 hours), probe 15 minutes): 183.2 RFU/S; integrated total fluorescence intensity ([4]; aortas of LPS-treated mice, probe + TEMPOL): 34.9 RFU/S; integrated total fluorescence intensity ([4]; aortas of PBS-treated mice): 46.9 RFU/S; concentration range of linear concentration curve against hydroxide radical [7]: 5 to 50 nM; detected concentration of hydroxide radical [7]: 5 nM; cellular toxicity (RASM cells): no cellular toxicity |
